# Laboratory results reported in patent publication US20260061056A1, “RINSE SOLUTION FOR A PHOTODYNAMIC DISINFECTION” (MANA HEALTH TECHNOLOGIES GMBH, priority 2022, published 2026).
# How the values were obtained:
# Streptococcus mutans = assay: photodynamic effect of rinsing solution against S. mutans bacterial suspension, photosensitiser concentration series (FIG. 2); assay type: cell-based; settings: irradiation 300 s; for microorganism content after irradiation: 17-21 J/cm^2
# Text: The corresponding comparative value was approx. 3.2·10^7 CFU/ml. The other bars of the graph each show the reduction in the microorganism content when using the (here: single) photosensitiser at different concentrations, including such concentrations that differ from the disclosed subject matter, in the rinsing solution after effective irradiation for 300 s with between 10 and 45 J/cm^2, in the present case between 17 and 21 J/cm^2.
# As the other bars R50, R125 and R250 show, the microorganism content increases again with increasing photosensitiser concentration of 0.5 wt. % (R50), 1.25 wt. % (R125) and 2.5 wt. % (R250), i.e. to approx. 1.6·10^5 CFU/ml, approx. 1.1·10^6 CFU/ml and approx. 2.9·10^6 CFU/ml, respectively. This means that despite the higher concentration of the photosensitiser and the higher number of free radicals to be expected as a result, the efficacy of the disinfection is reduced.
# [1] = absorption spectrum of the photosensitiser (FIG. 1); assay type: physicochemical; settings: absorption spectrum A of the photosensitiser in rinsing solution
# Text: The absorption spectrum A of the photosensitiser used here (dotted line in FIG. 1) has a maximum at a wavelength A of around 445 nm. To activate the photosensitiser, irradiation in the range of this wavelength—or optionally, as in the present example, with a broadband radiation source that also encompasses this range—is therefore effective. […] If more than one photosensitiser is used, this generally results in several absorption maxima to which the radiation source or its radiation spectrum must be adapted.
compound,measurement,setting,value
"Cc1cc2nc3c(=O)[nH]c(=O)nc-3n(C[C@H](O)[C@H](O)[C@H](O)COP(=O)([O-])O)c2cc1C.[Na+] [riboflavin 5′-phosphate sodium, Riboflavin 5′-phosphate sodium]",microorganism content after irradiation,"Streptococcus mutans; 0.01 wt. % photosensitiser in rinsing solution (bar R01), growth control approx. 3.2·10^7 CFU/ml",approx. 2.1·10^6 CFU/ml
same,reduction of microorganism content versus growth control,Streptococcus mutans; 0.01 wt. % photosensitiser,more than an order of magnitude
same,microorganism content after irradiation,Streptococcus mutans; 0.25 wt. % photosensitiser in rinsing solution (bar R25),approx. 2.0·10^4 CFU/ml
same,microorganism content as fraction of the comparative value,Streptococcus mutans; 0.25 wt. % photosensitiser,less than 1/1000
same,reduction of microorganism content versus growth control,Streptococcus mutans; 0.25 wt. % photosensitiser,more than 3 orders of magnitude
same,microorganism content after irradiation,Streptococcus mutans; 0.5 wt. % photosensitiser (bar R50),approx. 1.6·10^5 CFU/ml
same,microorganism content after irradiation,Streptococcus mutans; 1.25 wt. % photosensitiser (bar R125),approx. 1.1·10^6 CFU/ml
same,microorganism content after irradiation,Streptococcus mutans; 2.5 wt. % photosensitiser (bar R250),approx. 2.9·10^6 CFU/ml
same,absorption maximum wavelength,[1],around 445 nm
